Laboratory results as given in patent publication US7125858B2, “Hyaluronic acid in the treatment of cancer” (Bioniche Life Sciences Inc., priority 1999, dated 2006).

Tests used:
[1] = test system: MCF-7 human breast cancer cells; experiment: MTT cell proliferation, MCF-7; format: cell-based
Method: (§1) Cell proliferation was measured using dimethylthiazoldiphenyltetrazolium (MTT) reduction (Mosman et al. J. Immunol. Methods 65:55, 1983). Unless otherwise stated, 100 μl of 5 mg of MTT (Sigma-Aldrich, St. Louis, Mo., USA) dissolved in 1 ml of PBS was added into each well. After 4 h, medium was removed from each well, 1.0 ml of acid-isopropanol (0.04 N HCl in isopropanol) was added and reduced MTT was solubilized by mixing. Absorbency of the reaction product was measured at a wavelength of 570 nm using a multiplate spectrophotometer reader (Elx800 Model, Bio-TEK Instruments Inc., Winooski, Vt., USA).
(§2) Unless stated otherwise 1.0×10^5 cells/ml were seeded in 6-well flat-bottom tissue culture plates and were maintained for 48 h at 37° C. in a 5% CO2 atmosphere.
(§3) PC-3, LNCAP and Du-145 human prostate cancer cells; MCF-7 human breast cancer cells; HT-1080 human fibrosarcoma cancer cells; B16F1 murine melanoma cells; and, UMUC-3, RT-4, HT-1376 and T-24 human bladder cancer cells were incubated with 0.8, 8.0 and 80 μg/ml of 5.0–7.5×10^5 Da HA (Table 2).
(§4) Unless stated otherwise 2.0×10^4 cells/ml were seeded in 24-well plates and were maintained for 48 h at 37° C. in a 5% CO2 atmosphere. MTT was used at 50 μl per well.
(§5) T-24 human bladder cancer cells, PC-3 and Du-145 human prostate cancer cells, and MCF-7 human breast cancer cell were incubated with saline or with 80.0 μg/ml of 5.0–7.5×10^5 Da HA+1.0 μg/ml of M-DNA (Table 4).
MCF-7 human breast cancer cells (2.5×10^5 cells/ml) were incubated as in Example 6 with 0.0, 0.01 and 0.1 μg/ml of 5.0–7.5×10^5 Da HA+100 μg/ml of the synthetic 6 base oligonucleotide GG(GT)1GG (SEQ ID NO:1) or +100 μg/ml of the […] 27 base oligonucleotide (GT)13G (SEQ ID NO:2) (Table 6). MTT was used at 50 μl per well.
(§6) RT-4 human bladder cancer cells and MCF-7 human breast cancer cells were incubated as in Example 6 with 0.0, 0.008 or 0.08 μg/ml of 5.0–7.5×10^5 Da HA+0.1 μg/ml of CIS, +1.0 μg/ml of 5-FU or +10 μg/ml of 5-FU (Table 7).
(§7) CD44 expression and the inhibition of proliferation by 5.0–7.5×10^5 Da HA were measured using Jurkat T cell leukemia cells; MCF-7 human breast cancer cells; RT-4, T-24, HT-1376 and UMUC-3 human bladder cancer cells; and, PC-3, Du-145 and LNCaP prostate cancer cells (Table 8)

[2] = test system: UMUC-3 human bladder cancer cells; experiment: MTT cell proliferation, UMUC-3; format: cell-based; details: 1.0×10^5 cells/ml, 48 h
Method: as §1, §2, §3, §7

[3] = test system: B16F1 murine melanoma cells; experiment: MTT cell proliferation, B16F1; format: cell-based; details: 1.0×10^5 cells/ml, 48 h
Method: as §1, §2, §3

[4] = test system: HT-1376 human bladder cancer cells; experiment: MTT cell proliferation, HT-1376; format: cell-based; details: 48 h
Method: as §1, §2, §3, §4
(§8) HT-1376, RT-4 and T-24 human bladder cancer cells were incubated with 0.8 μg/ml of 5.0–7.5×10^5 Da HA+1.0 μg/ml of MCC (Table 5).
as §7

[5] = test system: Du-145 human prostate cancer cells; experiment: MTT cell proliferation, Du-145; format: cell-based; details: 48 h
Method: as §1, §2, §3
(§9) PC-3. LNCaP and Du-145 human prostate cancer cells were incubated with 8.0 μg/ml of 5.0–7.5×10^5 Da HA or of <1.5×10^4 Da HA (Table 3).
as §4, §5, §7

[6] = test system: T-24 human bladder cancer cells; experiment: MTT cell proliferation, T-24; format: cell-based; details: 48 h
Method: as §1, §2, §3, §4, §5, §8, §7

IL-6 = IL-6 production by PBMCs (ELISA); format: cell-based, human
Method: (§10) Peripheral blood mononuclear cells (hereinafter, “PBMCs”) were isolated from the blood of 5 healthy humans by Ficoll-Hypaque (Amersham Pharmacia Biotech, Baie d'Urfée, Québec, Canada) density gradient centrifugation of whole blood. Stimulation of IL-6 and IL-12 production by the immune system cells was determined using the appropriate commercial ELISA (BioSource, Camarillo, Calif., USA). Results are expressed as the “fold” (x) increases in cytokine production by treated cells compared to control cells. PBMCs were incubated with 1 mg/ml of 5.0–7.5×10^5 Da and production of IL-6 and IL-12 was determined (Table 9). PBMCs, isolated from the blood of individual #1, were incubated with 0.008, 0.04, 0.2 and 1 mg/ml of 5.0–7.5×10^5 Da (Table 10)

[7] = test system: LNCaP human prostate cancer cells; experiment: MTT cell proliferation, LNCaP; format: cell-based; details: 1.0×10^5 cells/ml, 48 h
Method: as §1, §2, §3, §9, §7

[8] = test system: RT-4 human bladder cancer cells; experiment: MTT cell proliferation, RT-4; format: cell-based
Method: as §1, §2, §3, §4, §8, §6, §7

[9] = test system: Jurkat T cell leukemia cells; experiment: MTT cell proliferation, Jurkat T; format: cell-based; details: HA 80 μg/ml alone
Method: as §1, §7

IL-12 = IL-12 production by PBMCs (ELISA); format: cell-based, human
Method: as §10

[10] = test system: PC-3 human prostate cancer cells; experiment: MTT cell proliferation, PC-3; format: cell-based; details: 48 h
Method: as §1, §2, §3, §9, §4, §5, §7

[11] = test system: HT-1080 human fibrosarcoma cancer cells; experiment: MTT cell proliferation, HT-1080; format: cell-based; details: 1.0×10^5 cells/ml, 48 h
Method: as §1, §2, §3

[12] = test system: rectal, gastric, breast, prostate and endometrial cancers; details: HA >750 mg/kg administered with various other therapeutic agents over various periods of time (PCT/CA/00283); cited from earlier work
[13] = test system: B16F10 murine melanoma tumor; details: HA 1 mg/ml over 7 days by Alzet osmotic pump into the immediate vicinity of the tumor; cited from earlier work
colon-26 cancer cells = details: HA alone; colon-26 cells express high levels of HA receptors (Freemantle et al. 1995); cited from earlier work
[14] = MCF-7 2.5×10^5 cells/ml, oligonucleotide 100 μg/ml alone (HA 0.0 μg/ml)
[15] = HA 0.8 μg/ml alone, 1.0×10^5 cells/ml
[16] = HA 8.0 μg/ml alone, 1.0×10^5 cells/ml
[17] = HA 80.0 μg/ml alone, 1.0×10^5 cells/ml
[18] = HA at 0.8 μg/ml alone (+ saline), 2.0×10^4 cells/ml, 24-well
[19] = HA 8.0 μg/ml alone, 1.0×10^5 cells/ml, listed as 0.5–7.5 × 10^5 Da HA
[20] = HA 80.0 μg/ml alone (+ saline), 2.0×10^4 cells/ml, 24-well
[21] = PBMCs of individual 1, HA 1 mg/ml
[22] = PBMCs of individual 2, HA 1 mg/ml
[23] = PBMCs of individual 3, HA 1 mg/ml
[24] = PBMCs of individual 4, HA 1 mg/ml
[25] = PBMCs of individual 5, HA 1 mg/ml
[26] = PBMCs of individual #1, HA 0.008 mg/ml
[27] = PBMCs of individual #1, HA 0.040 mg/ml
[28] = PBMCs of individual #1, HA 0.200 mg/ml

With “(GT)13G (DNA GTGTGTGTGTGTGTGTGTGTGTGTGTG; listed as DNA, chemistry not given here) [(G1T)13G, synthetic 27 base oligonucleotide]” the “% inhibition of cell proliferation” value [1, 14] was 44%.

For GG(GT)1GG, the “% inhibition of cell proliferation” value [1, 14] was 20%.

With Hyaluronic acid [5.0–7.5 × 10^5 Da HA] the “% inhibition of cell proliferation” value ([1]; MCF-7 2.5×10^5 cells/ml, HA 0.01 μg/ml alone, no oligonucleotide) was 6%, the “% inhibition of cell proliferation” value ([1]; MCF-7 2.5×10^5 cells/ml, HA 0.1 μg/ml alone, no oligonucleotide) was 5% and the “% inhibition of cell proliferation” value ([1]; MCF-7, HA 0.008 μg/ml alone (+ saline), as in Example 6) was 12%. The “% inhibition of cell proliferation” value ([1]; MCF-7, HA 0.08 μg/ml alone (+ saline), as in Example 6) was 12%, the “% inhibition of cell proliferation” value ([1]; MCF-7, HA 0.8 μg/ml alone, 1.0×10^5 cells/ml, 48 h) was 19% and the “% inhibition of cell proliferation” value ([1]; MCF-7, HA 8.0 μg/ml alone, 1.0×10^5 cells/ml, 48 h) was 24%. For the same substance, the “% inhibition of cell proliferation” value ([1]; MCF-7, HA 80.0 μg/ml alone (+ saline), 2.0×10^4 cells/ml, 24-well, 48 h) was 35%, the “% inhibition of cell proliferation” value ([1]; MCF-7, HA 80.0 μg/ml alone, 1.0×10^5 cells/ml, 48 h) was 35% and the “% inhibition of cell proliferation” value ([2]; HA 0.8 μg/ml alone) was 10%. The “% inhibition of cell proliferation” value ([2]; HA 8.0 μg/ml alone) was 10%, the “% inhibition of cell proliferation” value ([2]; HA 80.0 μg/ml alone) was 2% and the “% inhibition of cell proliferation” value ([3]; HA 0.8 μg/ml alone) was 20%. The “% inhibition of cell proliferation” value ([3]; HA 8.0 μg/ml alone) was 20%, the “% inhibition of cell proliferation” value ([3]; HA 80.0 μg/ml alone) was 30% and the “% inhibition of cell proliferation” value [4, 15] was 0%. For the same substance, the “% inhibition of cell proliferation” value [4, 16] was 3%, the “% inhibition of cell proliferation” value [4, 17] was 1% and the “% inhibition of cell proliferation” value [4, 18] was 3%. For the same substance, the “% inhibition of cell proliferation” value [5, 15] was 6%, the “% inhibition of cell proliferation” value [5, 19] was 15% and the “% inhibition of cell proliferation” value [5, 20] was 38%. The “% inhibition of cell proliferation” value [5, 17] was 38%, the “% inhibition of cell proliferation” value [6, 15] was 10% and the “% inhibition of cell proliferation” value [6, 16] was 8%. For the same substance, the “% inhibition of cell proliferation” value [6, 20] was 0%, the “% inhibition of cell proliferation” value [6, 17] was 0% and the “% inhibition of cell proliferation” value [6, 18] was 8%. The “IL-6 production, fold increase vs control cells” value (“IL-6 production, fold increase” below) (IL-6; [21]) was 3.8x, the “IL-6 production, fold increase” value (IL-6; [22]) was 1.8x and the “IL-6 production, fold increase” value (IL-6; [23]) was 4.1x. For the same substance, the “IL-6 production, fold increase” value (IL-6; [24]) was 1.4x, the “IL-6 production, fold increase” value (IL-6; [25]) was 6.3x and the “IL-6 production, fold increase” value (IL-6; [26]) was 2.4x. The “IL-6 production, fold increase” value (IL-6; [27]) was 3.5x, the “IL-6 production, fold increase” value (IL-6; [28]) was 2.9x and the “% inhibition of cell proliferation” value ([7]; HA 0.8 μg/ml alone) was 7%. For the same substance, the “% inhibition of cell proliferation” value ([7]; HA 8.0 μg/ml alone, listed as 0.5–7.5 × 10^5 Da HA) was 13%, the “% inhibition of cell proliferation” value ([8]; HA 0.008 μg/ml alone (+ saline), as in Example 6) was 0% and the “% inhibition of cell proliferation” value ([8]; HA 0.08 μg/ml alone (+ saline), as in Example 6) was 0%. The “% inhibition of cell proliferation” value ([8]; HA 0.8 μg/ml alone, 1.0×10^5 cells/ml, 48 h) was 12%, the “% inhibition of cell proliferation” value ([8]; HA 8.0 μg/ml alone, 1.0×10^5 cells/ml, 48 h) was 13% and the “% inhibition of cell proliferation” value ([8]; HA 80.0 μg/ml alone, 1.0×10^5 cells/ml, 48 h) was 5%. The “% inhibition of cell proliferation” value ([8]; HA at 0.8 μg/ml alone (+ saline), 2.0×10^4 cells/ml, 24-well, 48 h) was 13%, the “% inhibition of proliferation” value [9] was 0% and the “IL-12 production, fold increase vs control cells” value (from here on “IL-12 production, fold increase”) (IL-12; [21]) was 25.2x. For the same substance, the “IL-12 production, fold increase” value (IL-12; [22]) was 7.1x, the “IL-12 production, fold increase” value (IL-12; [23]) was 26.5x and the “IL-12 production, fold increase” value (IL-12; [24]) was 10.0x. For the same substance, the “IL-12 production, fold increase” value (IL-12; [25]) was 8.5x, the “IL-12 production, fold increase” value (IL-12; [26]) was 4.9x and the “IL-12 production, fold increase” value (IL-12; [27]) was 13.8x. For the same substance, the “IL-12 production, fold increase” value (IL-12; [28]) was 8.5x, the “% inhibition of cell proliferation” value [10, 15] was 15% and the “% inhibition of cell proliferation” value [10, 19] was 26%. The “% inhibition of cell proliferation” value [10, 20] was 30%, the “% inhibition of cell proliferation” value ([11]; HA 0.8 μg/ml alone) was 4% and the “% inhibition of cell proliferation” value ([11]; HA 8.0 μg/ml alone) was 4%. For the same substance, the “% inhibition of cell proliferation” value ([11]; HA 80.0 μg/ml alone) was 36%.

For Hyaluronic acid [<1.5 × 10^4 Da HA], the “% inhibition of cell proliferation” value [5, 16] was 37%, the “% inhibition of cell proliferation” value ([7]; HA 8.0 μg/ml alone) was 24% and the “% inhibition of cell proliferation” value [10, 16] was 5%.

In the case of Hyaluronic acid [HA], the effect on cancers [12] is given as “reduced or eliminated”, the “reduction of tumor volume” value [13] is given as over 85% and the “% inhibition of cell proliferation” value ([7]; HA 80.0 μg/ml alone) is given as 26%. For the same substance, the “growth of cancer cells” value (colon-26 cancer cells) was “significantly inhibits” and the “% inhibition of cell proliferation” value [10, 17] was 30%.
